Legend:
[1] = molecular target: T1, Polyunsaturated fatty acid lipoxygenase ALOX15 (Oryctolagus cuniculus, UniProt P12530); assay: Inhibition of rabbit 15-lipoxygenase in presence of arachidonic acid
T1 sequence (P12530 whole entry): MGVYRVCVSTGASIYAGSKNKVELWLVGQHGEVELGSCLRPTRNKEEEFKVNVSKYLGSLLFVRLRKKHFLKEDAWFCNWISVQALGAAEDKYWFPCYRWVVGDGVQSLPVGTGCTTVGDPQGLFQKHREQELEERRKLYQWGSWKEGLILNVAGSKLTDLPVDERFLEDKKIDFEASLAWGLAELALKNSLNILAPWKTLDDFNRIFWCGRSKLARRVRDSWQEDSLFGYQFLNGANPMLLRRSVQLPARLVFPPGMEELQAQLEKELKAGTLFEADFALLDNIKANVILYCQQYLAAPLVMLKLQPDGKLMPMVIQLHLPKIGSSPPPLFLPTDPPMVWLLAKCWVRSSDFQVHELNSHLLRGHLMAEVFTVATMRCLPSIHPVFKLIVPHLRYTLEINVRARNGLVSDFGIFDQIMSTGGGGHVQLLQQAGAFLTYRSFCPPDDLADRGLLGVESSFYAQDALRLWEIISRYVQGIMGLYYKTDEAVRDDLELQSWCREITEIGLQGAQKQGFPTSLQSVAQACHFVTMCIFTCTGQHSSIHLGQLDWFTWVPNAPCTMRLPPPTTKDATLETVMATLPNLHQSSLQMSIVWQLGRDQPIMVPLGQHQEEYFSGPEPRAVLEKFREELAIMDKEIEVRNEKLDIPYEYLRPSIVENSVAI

[2] = molecular target: T1, Polyunsaturated fatty acid lipoxygenase ALOX15; assay: Inhibition of rabbit 15-lipoxygenase in presence of linoleic acid
[3] = molecular target: T2, Polyunsaturated fatty acid 5-lipoxygenase (Homo sapiens) (UniProt P09917); assay: Inhibition of human 5-lipoxygenase at 10 uM
T2 sequence (whole entry): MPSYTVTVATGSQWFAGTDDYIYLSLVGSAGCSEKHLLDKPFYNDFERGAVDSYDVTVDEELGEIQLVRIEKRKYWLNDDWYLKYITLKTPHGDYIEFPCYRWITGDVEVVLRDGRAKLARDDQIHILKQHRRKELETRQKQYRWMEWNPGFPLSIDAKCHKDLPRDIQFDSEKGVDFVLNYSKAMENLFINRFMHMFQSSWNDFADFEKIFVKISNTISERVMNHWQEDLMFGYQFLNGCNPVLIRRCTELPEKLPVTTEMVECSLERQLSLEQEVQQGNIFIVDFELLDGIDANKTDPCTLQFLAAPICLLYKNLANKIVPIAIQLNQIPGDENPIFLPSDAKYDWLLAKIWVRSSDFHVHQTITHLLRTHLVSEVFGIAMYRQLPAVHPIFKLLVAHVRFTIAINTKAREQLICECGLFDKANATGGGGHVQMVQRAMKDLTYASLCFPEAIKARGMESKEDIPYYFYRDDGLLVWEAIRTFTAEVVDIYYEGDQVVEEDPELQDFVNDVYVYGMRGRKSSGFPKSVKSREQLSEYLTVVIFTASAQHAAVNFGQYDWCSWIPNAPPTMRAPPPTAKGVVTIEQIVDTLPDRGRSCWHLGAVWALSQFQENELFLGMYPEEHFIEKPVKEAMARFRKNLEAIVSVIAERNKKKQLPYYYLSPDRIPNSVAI

[4] = molecular target: T3, Polyunsaturated fatty acid lipoxygenase ALOX12 (Homo sapiens) (UniProt P18054); assay: Inhibition of platelet 12-lipoxygenase at 10 uM
T3 sequence (whole entry): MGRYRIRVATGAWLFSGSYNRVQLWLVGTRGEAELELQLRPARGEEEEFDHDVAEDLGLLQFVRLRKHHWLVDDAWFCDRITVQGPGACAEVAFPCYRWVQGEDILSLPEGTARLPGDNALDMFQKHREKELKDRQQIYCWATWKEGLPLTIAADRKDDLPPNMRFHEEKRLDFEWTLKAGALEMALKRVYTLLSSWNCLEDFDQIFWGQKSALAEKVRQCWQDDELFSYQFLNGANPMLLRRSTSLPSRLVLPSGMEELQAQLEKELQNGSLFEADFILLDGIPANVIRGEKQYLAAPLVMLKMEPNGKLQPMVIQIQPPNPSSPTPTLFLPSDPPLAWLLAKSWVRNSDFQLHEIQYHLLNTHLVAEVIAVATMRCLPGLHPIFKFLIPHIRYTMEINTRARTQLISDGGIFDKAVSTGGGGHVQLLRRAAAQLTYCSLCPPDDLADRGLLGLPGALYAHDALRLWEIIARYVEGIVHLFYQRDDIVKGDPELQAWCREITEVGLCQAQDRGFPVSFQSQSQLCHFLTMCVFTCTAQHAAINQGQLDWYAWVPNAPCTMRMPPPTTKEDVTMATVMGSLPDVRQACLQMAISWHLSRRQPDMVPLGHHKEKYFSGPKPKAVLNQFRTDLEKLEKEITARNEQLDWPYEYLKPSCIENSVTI

[5] = molecular target: T4, Polyunsaturated fatty acid lipoxygenase ALOX15B (Homo sapiens) (UniProt O15296); assay: Inhibition of human recombinant 15-lipoxygenase over-expressed in CHO cells at 10 uM; format: cell-based
T4 sequence (whole entry): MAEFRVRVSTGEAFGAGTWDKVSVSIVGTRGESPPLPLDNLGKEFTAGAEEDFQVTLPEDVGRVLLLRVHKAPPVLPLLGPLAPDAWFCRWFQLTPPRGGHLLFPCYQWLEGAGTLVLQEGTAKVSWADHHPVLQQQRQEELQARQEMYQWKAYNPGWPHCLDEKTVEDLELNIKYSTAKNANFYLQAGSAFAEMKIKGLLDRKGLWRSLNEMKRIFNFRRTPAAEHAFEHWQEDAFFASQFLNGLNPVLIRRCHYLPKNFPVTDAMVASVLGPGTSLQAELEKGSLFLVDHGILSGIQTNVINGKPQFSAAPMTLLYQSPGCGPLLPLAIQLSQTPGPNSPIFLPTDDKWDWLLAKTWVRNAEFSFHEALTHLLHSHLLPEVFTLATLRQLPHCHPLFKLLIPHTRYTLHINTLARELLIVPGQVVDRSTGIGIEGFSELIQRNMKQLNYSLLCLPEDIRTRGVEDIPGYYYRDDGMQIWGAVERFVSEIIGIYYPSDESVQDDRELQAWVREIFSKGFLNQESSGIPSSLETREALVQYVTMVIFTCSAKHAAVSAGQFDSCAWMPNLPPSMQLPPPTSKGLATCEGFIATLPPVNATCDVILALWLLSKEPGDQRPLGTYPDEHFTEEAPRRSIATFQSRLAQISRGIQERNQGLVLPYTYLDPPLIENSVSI

[6] = Aqueous solubility at pH6.5; format: physicochemical; conditions: buffer, pH 6.5
[7] = molecular target: T5, Polyunsaturated fatty acid lipoxygenase ALOX12 (Homo sapiens, UniProt P18054); assay: Inhibition of platelet 12-lipoxygenase
T5 sequence (P18054 whole entry): T3 sequence (whole entry)

[8] = molecular target: T6, Polyunsaturated fatty acid 5-lipoxygenase (Homo sapiens, UniProt P09917); assay: Inhibition of 5-lipoxygenase
T6 sequence (P09917 whole entry): T2 sequence (whole entry)

[9] = Cmax in Sprague-Dawley rat at 7 mg/kg, po; format: ADME, organism-based; set-up: dose 7 mg/kg, route oral; conditions: in vivo
[10] = Hydrophilicity, log D at pH 6.5; format: physicochemical; conditions: buffer
[11] = molecular target: T2, Polyunsaturated fatty acid 5-lipoxygenase (Homo sapiens); assay: Inhibition of human 5-lipoxygenase at 3 uM
[12] = molecular target: T3, Polyunsaturated fatty acid lipoxygenase ALOX12 (Homo sapiens); assay: Inhibition of platelet 12-lipoxygenase at 3 uM

| Compound | IC50 [1] [nM] | IC50 [2] [nM] | also measured |
| --- | --- | --- | --- |
| CCCCCc1ccc(S(=O)(=O)NCCc2nc(-c3ccccc3)[nH]c2-c2cccc(OC)c2)cc1 | 531 | 82 |  |
| CCCCCc1ccc(S(=O)(=O)NCCc2nc(-c3cccnc3)[nH]c2-c2ccc(OC)cc2)cc1 |  | 560 |  |
| CCCCCc1ccc(S(=O)(=O)NCCc2nc(-c3ccccc3)[nH]c2-c2ccc(F)cc2)cc1 | 261 | 59 | inhibition [3]: 45%; inhibition [4]: 47% |
| COc1ccc(-c2[nH]c(-c3ccccc3)nc2CCNS(=O)(=O)N[C@H]2CCN(Cc3ccccc3)C2)cc1 | 2410 | 272 |  |
| COc1ccc(-c2[nH]c(-c3ccccc3)nc2CCNS(=O)(=O)N(C)[C@@H]2CCN(Cc3ccccc3)C2)cc1 | 186 | 31 | inhibition [5]: 70% |
| CCCCCc1ccc(S(=O)(=O)NCCc2[nH]cnc2-c2ccc(OC)cc2)cc1 |  | > 10000 |  |
| COc1ccc(-c2[nH]c(-c3cccs3)nc2CCNS(=O)(=O)N2CCN(c3ccc(Cl)c(Cl)c3)CC2)cc1 | 133 | 36 | inhibition [5]: 84% |
| CCCCCc1ccc(S(=O)(=O)NCCc2nc(-c3cccs3)[nH]c2-c2ccc(OC)cc2)cc1 | 13 | 6 | solubility [6]: < 1 µg/mL; IC50 [7]: 9700 nM; inhibition [3]: 41%; inhibition [4]: 50%; IC50 [8]: > 10000 nM; inhibition [5]: 98%; Cmax [9]: 600 nM; logD [10]: > 6 |
| CCCCCc1ccc(S(=O)(=O)NCCc2nc(-c3csc(C)n3)[nH]c2-c2ccc(OC)cc2)cc1 |  | 720 |  |
| COc1ccc(-c2[nH]c(-c3cccs3)nc2CCNS(=O)(=O)N(C)[C@@H]2CCN(Cc3ccc(Cl)c(Cl)c3)C2)cc1 | 83 | 11 | inhibition [3]: 67%; inhibition [4]: 42% |
| CCCCCc1ccc(S(=O)(=O)NCCc2nc(-c3ccccc3)[nH]c2-c2ccc(C(F)(F)F)cc2)cc1 | 372 | 72 |  |
| CCCCCc1ccc(S(=O)(=O)NCCc2nc(C)[nH]c2-c2ccc(OC)cc2)cc1 |  | > 10000 |  |
| CCN([C@@H]1CCN(C(C)c2ccc(F)cc2)C1)S(=O)(=O)NCCc1nc(-c2cccs2)[nH]c1-c1ccc(OC)cc1 (stereo partly specified) |  |  | inhibition [5]: 96% |
| CCCCCc1ccc(S(=O)(=O)NCCc2nc(-c3ccccc3)[nH]c2-c2ccccc2)cc1 | 162 | 33 | inhibition [3]: 39%; inhibition [4]: 32% |
| COc1ccc(-c2[nH]c(-c3cccs3)nc2CCNS(=O)(=O)N2CCN(c3ccccc3Cl)CC2)cc1 | 132 | 45 |  |
| COc1ccc(-c2[nH]c(-c3ccccc3)nc2CCNS(=O)(=O)N2CCN(c3ccccc3)CC2)cc1 | 3450 | 212 |  |
| CCCCCc1ccc(S(=O)(=O)NCCc2nc(-c3ccccn3)[nH]c2-c2ccc(OC)cc2)cc1 | 5320 | 970 |  |

Second part, led by results:

| IC50 [1] [nM] | IC50 [2] [nM] | Compound | also measured |
| --- | --- | --- | --- |
| > 10000 | > 10000 | CCCCCc1ccc(S(=O)(=O)NCCc2nc(C3CC3)[nH]c2-c2ccc(OC)cc2)cc1 |  |
|  | 2810 | CCCCCc1ccc(S(=O)(=O)NCCc2nc(-c3cnccn3)[nH]c2-c2ccc(OC)cc2)cc1 |  |
| 50 | 14 | CCCCCc1ccc(S(=O)(=O)NCCc2nc(-c3ccccc3)[nH]c2-c2ccc(OC)cc2)cc1 | inhibition [11]: 15%; inhibition [5]: 83%; inhibition [12]: 45% |
| > 10000 | 1920 | CCCCCc1ccc(S(=O)(=O)NCCc2nc(C(C)(C)C)[nH]c2-c2ccc(OC)cc2)cc1 |  |
| 914 | 140 | CCCCCc1ccc(S(=O)(=O)NCCCc2nc(-c3ccccc3)[nH]c2-c2ccc(OC)cc2)cc1 |  |
|  | > 3000 | CCCCCc1ccc(S(=O)(=O)NCCc2nc(-c3ccc(C)cc3)[nH]c2-c2ccc(OC)cc2)cc1 |  |
| 3210 | 87 | CCCCCc1ccc(S(=O)(=O)NCCc2nc(-c3ccncc3)[nH]c2-c2ccc(OC)cc2)cc1 |  |
| 396 | 53 | CCCCCc1ccc(S(=O)(=O)NCCCc2nc(-c3cccs3)[nH]c2-c2ccc(OC)cc2)cc1 |  |
| 378 | 55 | COc1ccc(-c2[nH]c(-c3ccccc3)nc2CCNS(=O)(=O)N2CCN(c3ccc(Cl)c(Cl)c3)CC2)cc1 |  |
|  | > 10000 | CCCCCc1ccc(S(=O)(=O)NCCc2nc(-c3ccc(OC)cc3)[nH]c2-c2ccc(OC)cc2)cc1 |  |
| 1100 | 21 | CCCCCc1ccc(S(=O)(=O)NCCc2nc(-c3ccc(Cl)cc3)[nH]c2-c2ccc(OC)cc2)cc1 |  |
| 375 | 38 | COc1ccc(-c2[nH]c(-c3cccs3)nc2CCNS(=O)(=O)N(C)[C@@H]2CCN(Cc3ccccc3)C2)cc1 |  |
| 2800 | 364 | COc1ccc(-c2[nH]c(-c3ccccc3)nc2CCNS(=O)(=O)c2ccc(C)cc2)cc1 |  |
| 132 | 10 | CCN([C@@H]1CCN(C(C)(C)c2ccccc2)C1)S(=O)(=O)NCCc1nc(-c2cccs2)[nH]c1-c1ccc(OC)cc1 |  |
| 646 | 91 | CCCCCN1CCN(S(=O)(=O)NCCc2nc(-c3cccs3)[nH]c2-c2ccc(OC)cc2)CC1 |  |
| 82.2 | 80 | COc1ccc(-c2[nH]c(-c3ccccc3)nc2CCNS(=O)(=O)N(C)[C@H]2CCN(Cc3ccccc3)C2)cc1 |  |
| 719 | 83 | COc1ccc(-c2[nH]c(-c3ccccc3)nc2CCNS(=O)(=O)N[C@@H]2CCN(Cc3ccccc3)C2)cc1 |  |
| 1100 | 99 | CCCCCc1ccc(S(=O)(=O)NCCc2nc(-c3cccc([N+](=O)[O-])c3)[nH]c2-c2ccc(OC)cc2)cc1 |  |
